Test results from patent EP3623369A1, “NOVEL MORPHOLINYL AMINE COMPOUNDS FOR THE TREATMENT OF AUTOIMMUNE DISEASE” (F. Hoffmann-La Roche AG, priority 2018, dated 2020).

Target: T1, hTLR7 (Homo sapiens, UniProt Q9NYK1)
T1 sequence (Q9NYK1 27-1049): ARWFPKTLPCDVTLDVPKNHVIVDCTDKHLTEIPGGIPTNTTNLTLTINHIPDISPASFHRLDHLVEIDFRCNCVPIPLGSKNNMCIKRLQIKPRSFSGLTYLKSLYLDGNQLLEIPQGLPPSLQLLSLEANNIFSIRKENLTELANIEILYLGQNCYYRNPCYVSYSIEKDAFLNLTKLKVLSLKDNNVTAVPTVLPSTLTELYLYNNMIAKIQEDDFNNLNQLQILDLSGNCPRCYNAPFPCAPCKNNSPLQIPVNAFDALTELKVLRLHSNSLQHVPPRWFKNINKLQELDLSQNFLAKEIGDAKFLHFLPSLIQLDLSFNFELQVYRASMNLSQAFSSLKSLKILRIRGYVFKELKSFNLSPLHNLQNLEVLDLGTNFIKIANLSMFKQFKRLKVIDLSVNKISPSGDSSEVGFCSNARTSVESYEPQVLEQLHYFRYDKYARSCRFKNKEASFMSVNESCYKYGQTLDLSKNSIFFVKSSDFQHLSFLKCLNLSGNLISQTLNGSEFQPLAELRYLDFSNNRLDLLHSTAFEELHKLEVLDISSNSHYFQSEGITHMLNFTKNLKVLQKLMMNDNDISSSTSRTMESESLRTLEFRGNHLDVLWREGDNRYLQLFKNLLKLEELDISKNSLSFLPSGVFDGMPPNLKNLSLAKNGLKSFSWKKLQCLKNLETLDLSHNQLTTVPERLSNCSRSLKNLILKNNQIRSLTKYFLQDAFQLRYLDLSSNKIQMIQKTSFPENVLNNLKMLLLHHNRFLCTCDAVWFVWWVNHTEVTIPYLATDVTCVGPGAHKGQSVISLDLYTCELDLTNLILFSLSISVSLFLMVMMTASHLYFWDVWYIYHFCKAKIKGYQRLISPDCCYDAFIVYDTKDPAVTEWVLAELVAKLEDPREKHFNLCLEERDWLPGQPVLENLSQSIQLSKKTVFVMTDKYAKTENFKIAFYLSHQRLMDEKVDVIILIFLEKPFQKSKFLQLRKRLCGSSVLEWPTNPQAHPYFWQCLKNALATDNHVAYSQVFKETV
Test: HEK293-Blue-hTLR-7 cells assay (SEAP reporter, R848 stimulation)
Type: cell-based
Conditions: HEK293-Blue-hTLR7 cells, R848, 20 hrs; 0.003 is the lowest tested concentration; read-out: HEK/hTLR7 IC50
Procedure, shortened: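 HEK293-Blue-hTLR7 cells carry an NF-κB/AP-1-driven SEAP reporter and were stimulated with R848 in the presence of serially diluted compound (1% DMSO final) for 20 hrs at 37 °C. Supernatant SEAP was measured with QUANTI-Blue after 2 hrs at 37 °C, reading absorbance at 620∼655 nm.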

SMILES | IC50 [nM]
C[C@@H]1CN(c2ccc(C#N)n3nccc23)C[C@H](CN2Cc3ccncc3C2)O1 [Example R2, 4-[(2S,6R)-2-(1,3-dihydropyrrolo[3,4-c]pyridin-2-ylmethy1)-6-methyl-morpholin-4-yl]pyrazolo[1,5-a]pyridine-7-carbonitrile, reference compound] | 722
C[C@@H]1CN(c2ccc(C#N)c3ncccc23)C[C@H](CN2Cc3ccc(N4CC5CCC(C4)N5)cc3C2)O1 [Example 42, 5-[(2S,6R)-2-[[5-(3,8-diazabicyclo[3.2.1]octan-3-yl)isoindolin-2-yl]methyl]-6-methyl-morpholin-4-yl]quinoline-8-carbonitrile] | 62
C[C@@H]1CN(c2ccc(C#N)c3nccnc23)C[C@H](CN2Cc3cnc(N4CCNCC4)cc3C2)O1 [Example 60, 8-[(2R,6S)-2-methyl-6-[(6-piperazin-1-yl-1,3-dihydropyrrolo[3,4-c]pyridin-2-yl)methyl]morpholin-4-yl]quinoxaline-5-carbonitrile] | 11
C[C@@H]1CN(c2ccc(C#N)c3ncccc23)C[C@H](CN2CCc3cc(N4CCNCC4)ccc3C2)O1 [Example 19, 5-[(2R,6S)-2-methyl-6-[(6-piperazin-1-yl-3,4-dihydro-1H-isoquinolin-2-yl)methyl]morpholin-4-yl]quinoline-8-carbonitrile] | 11
C[C@@H]1CN(c2ccc(C#N)c3ncccc23)C[C@H](CN2Cc3ccc(N4CCNC[C@@H]4CO)cc3C2)O1 [Example 82, 5-[(2S,6R)-2-[[5-[(2R)-2-(hydroxymethyl)piperazin-1-yl]isoindolin-2-yl]methyl]-6-methyl-morpholin-4-yl]quinoline-8-carbonitrile] | 47
C[C@@H]1CN(c2ccc(C#N)c3ncccc23)C[C@H](CNCc2ccccc2)O1 [ER-886509, reference compound] | 88
C[C@@H]1CN(c2ccc(C#N)c3ncccc23)C[C@H](CN2Cc3ccc(N4CCNCC4C(F)F)cc3C2)O1 (stereo partly drawn) [Example 76, 5-[(2S,6R)-2-[[5-[2-(difluoromethyl)piperazin-1-yl]isoindolin-2-yl]methyl]-6-methyl-morpholin-4-yl]quinoline-8-carbonitrile] | 9
